In the NIST ThermoML archive (doi:10.1016/j.jct.2017.02.010):
± gives the expanded uncertainty stated by the source.

Conditions: Gas chromatography

CC1=C2CC[C@@H](C)C[C@H]2OC1=O [(-)-mintlactone]
Metastable liquid
Conditions | vapor or sublimation pressure [kPa]
298.15 K | 0.00033 ± 5e-05
305 K | 0.00063 ± 0.00011
310 K | 0.001 ± 0.0002
315 K | 0.0015 ± 0.0004
320 K | 0.0024 ± 0.0006
325 K | 0.0035 ± 0.0008
330 K | 0.0053 ± 0.0013
335 K | 0.0077 ± 0.0017
340 K | 0.011 ± 0.002
345 K | 0.016 ± 0.002
350 K | 0.023 ± 0.004

CCCC[C@H]1OC(=O)C[C@@H]1C [trans-whiskey lactone]
Liquid
Conditions | vapor or sublimation pressure [kPa]
298.15 K | 0.002 ± 0.0003
305 K | 0.0036 ± 0.0007
310 K | 0.0056 ± 0.0011
315 K | 0.0084 ± 0.0017
320 K | 0.012 ± 0.003
325 K | 0.018 ± 0.004
330 K | 0.026 ± 0.006
335 K | 0.037 ± 0.007
340 K | 0.052 ± 0.011
345 K | 0.072 ± 0.013
350 K | 0.099 ± 0.016

CCCC[C@H]1OC(=O)C[C@H]1C [cis-whiskey lactone]
Liquid
Conditions | vapor or sublimation pressure [kPa]
298.15 K | 0.0015 ± 0.0002
305 K | 0.0028 ± 0.0004
310 K | 0.0043 ± 0.0009
315 K | 0.0064 ± 0.0013
320 K | 0.0095 ± 0.0019
325 K | 0.014 ± 0.002
330 K | 0.02 ± 0.004
335 K | 0.029 ± 0.006
340 K | 0.041 ± 0.009
345 K | 0.057 ± 0.011
350 K | 0.079 ± 0.013

CC1=C2CC[C@@H](C)C[C@@H]2OC1=O [(.+-.)-isomintlactone]
Metastable liquid
Conditions | vapor or sublimation pressure [kPa]
298.15 K | 0.00026 ± 4e-05
305 K | 0.00051 ± 9e-05
310 K | 0.00081 ± 0.00017
315 K | 0.0013 ± 0.0002
320 K | 0.0019 ± 0.0004
325 K | 0.0029 ± 0.0006
330 K | 0.0044 ± 0.001
335 K | 0.0064 ± 0.0015
340 K | 0.0093 ± 0.0021
345 K | 0.013 ± 0.002
350 K | 0.019 ± 0.004
